ChEMBL document CHEMBL3885881, “DrugMatrix”

Species on record: Rattus norvegicus
Test: DrugMatrix - Regimen: Daily Repeat
Type: toxicity, organism-based, Sprague-Dawley
Set-up: regimen Daily Repeat, gender Male, age 6-8 weeks
Conditions: in vivo, sc, route subcutaneous, […]; for ABSOLUTE BASOPHIL / ABSOLUTE EOSINOPHIL / ABSOLUTE LYMPHOCYTE / ABSOLUTE MONOCYTE / ABSOLUTE SEGMENTED NEUTROPHIL / BASOPHIL / EOSINOPHIL / ERYTHROCYTE COUNT / HEMATOCRIT / HEMOGLOBIN / LEUKOCYTE COUNT / LYMPHOCYTE / MEAN CORPUSCULAR HEMOGLOBIN / MEAN CORPUSCULAR HEMOGLOBIN CONCENTRATION / MEAN CORPUSCULAR VOLUME / MONOCYTE / NEUTROPHIL / NUCLEATED RED BLOOD CELLS / PLATELET COUNT: tissue Blood; for ALANINE AMINOTRANSFERASE / ALBUMIN / ALKALINE PHOSPHATASE / ASPARTATE AMINOTRANSFERASE / BLOOD UREA NITROGEN / CARBON DIOXIDE / CHLORIDE / CHOLESTEROL / CREATINE PHOSPHOKINASE / CREATININE / GLUCOSE / LACTATE DEHYDROGENASE / LIPASE / PHOSPHORUS / POTASSIUM / SODIUM / TOTAL BILIRUBIN / TOTAL PROTEIN / URIC ACID: tissue Plasma
[1] = 27 mg/kg, 120 h, dose level Low, time 5 day
[2] = 1200 mg/kg, 72 h, dose level High, time 3 day
[3] = 1200 mg/kg, 120 h, dose level High, time 5 day

Clc1ccc(CSC(Cn2ccnc2)c2ccc(Cl)cc2Cl)cc1 (centres undefined) [SULCONAZOLE]
ABSOLUTE BASOPHIL [1]: 0 CELLS/uL
ABSOLUTE EOSINOPHIL [1]: 176 CELLS/uL
ABSOLUTE LYMPHOCYTE [1]: 10589.67 CELLS/uL
ABSOLUTE MONOCYTE [1]: 178.33 CELLS/uL
ABSOLUTE SEGMENTED NEUTROPHIL [1]: 2489.33 CELLS/uL
BASOPHIL [1]: 0%
EOSINOPHIL [1]: 1.33%
ERYTHROCYTE COUNT [1]: 5.26 x10E6/uL
HEMATOCRIT [1]: 33.93%
HEMOGLOBIN [1]: 13 G/DL
LEUKOCYTE COUNT [1]: 13.43 x10E3/uL
LYMPHOCYTE [1]: 78.33%
MEAN CORPUSCULAR HEMOGLOBIN [1]: 24.73 pg
MEAN CORPUSCULAR HEMOGLOBIN CONCENTRATION [1]: 38.3 G/DL
MEAN CORPUSCULAR VOLUME [1]: 64.6 fL
MONOCYTE [1]: 1.33%
NEUTROPHIL [1]: 19%
NUCLEATED RED BLOOD CELLS [1]: 0 /100WBC
PLATELET COUNT [1]: 1332 x10E3/uL
ALANINE AMINOTRANSFERASE [1]: 56 u/L
ALBUMIN [1]: 3.9 G/DL
ALKALINE PHOSPHATASE [1]: 279.67 u/L
ASPARTATE AMINOTRANSFERASE [1]: 81.67 u/L
BLOOD UREA NITROGEN [1]: 17 mg/dL
CARBON DIOXIDE [1]: 25.33 mmol/L
CHLORIDE [1]: 105.67 MEQ/L
CHOLESTEROL [1]: 64.67 mg/dL
CREATINE PHOSPHOKINASE [1]: 435.33 u/L
CREATININE [1]: 0.16 mg/dL
GLUCOSE [1]: 162.33 mg/dL
LACTATE DEHYDROGENASE [1]: 119.67 u/L
LIPASE [1]: 7.33 u/L
PHOSPHORUS [1]: 14.4 mg/dL
POTASSIUM [1]: 6.46 MEQ/L
SODIUM [1]: 145.43 MEQ/L
TOTAL BILIRUBIN [1]: 0.17 mg/dL
TOTAL PROTEIN [1]: 5.9 G/DL
URIC ACID [1]: 1.63 mg/dL
ABSOLUTE BASOPHIL [2]: 0 CELLS/uL
ABSOLUTE EOSINOPHIL [2]: 83.33 CELLS/uL
ABSOLUTE LYMPHOCYTE [2]: 7163.33 CELLS/uL
ABSOLUTE MONOCYTE [2]: 161.33 CELLS/uL
ABSOLUTE SEGMENTED NEUTROPHIL [2]: 2925.33 CELLS/uL
BASOPHIL [2]: 0%
EOSINOPHIL [2]: 1%
ERYTHROCYTE COUNT [2]: 5.45 x10E6/uL
HEMATOCRIT [2]: 33.7%
HEMOGLOBIN [2]: 12.87 G/DL
LEUKOCYTE COUNT [2]: 10.33 x10E3/uL
LYMPHOCYTE [2]: 68.33%
MEAN CORPUSCULAR HEMOGLOBIN [2]: 23.6 pg
MEAN CORPUSCULAR HEMOGLOBIN CONCENTRATION [2]: 38.2 G/DL
MEAN CORPUSCULAR VOLUME [2]: 61.83 fL
MONOCYTE [2]: 1.67%
NEUTROPHIL [2]: 29%
NUCLEATED RED BLOOD CELLS [2]: 0 /100WBC
PLATELET COUNT [2]: 1327 x10E3/uL
ALANINE AMINOTRANSFERASE [2]: 43 u/L
ALBUMIN [2]: 3.9 G/DL
ALKALINE PHOSPHATASE [2]: 294.67 u/L
ASPARTATE AMINOTRANSFERASE [2]: 79.33 u/L
BLOOD UREA NITROGEN [2]: 14 mg/dL
CARBON DIOXIDE [2]: 30 mmol/L
CHLORIDE [2]: 109 MEQ/L
CHOLESTEROL [2]: 69.33 mg/dL
CREATINE PHOSPHOKINASE [2]: 308.33 u/L
CREATININE [2]: 0.2 mg/dL
GLUCOSE [2]: 133.67 mg/dL
LACTATE DEHYDROGENASE [2]: 112.67 u/L
LIPASE [2]: 8 u/L
PHOSPHORUS [2]: 10.93 mg/dL
POTASSIUM [2]: 6.11 MEQ/L
SODIUM [2]: 149.45 MEQ/L
TOTAL BILIRUBIN [2]: 0.13 mg/dL
TOTAL PROTEIN [2]: 6.27 G/DL
URIC ACID [2]: 0.83 mg/dL
ABSOLUTE BASOPHIL [3]: 0 CELLS/uL
ABSOLUTE EOSINOPHIL [3]: 276.67 CELLS/uL
ABSOLUTE LYMPHOCYTE [3]: 12157 CELLS/uL
ABSOLUTE MONOCYTE [3]: 40.67 CELLS/uL
ABSOLUTE SEGMENTED NEUTROPHIL [3]: 4359 CELLS/uL
BASOPHIL [3]: 0%
EOSINOPHIL [3]: 1.67%
ERYTHROCYTE COUNT [3]: 5.75 x10E6/uL
HEMATOCRIT [3]: 35.17%
HEMOGLOBIN [3]: 13.07 G/DL
LEUKOCYTE COUNT [3]: 16.83 x10E3/uL
LYMPHOCYTE [3]: 72.33%
MEAN CORPUSCULAR HEMOGLOBIN [3]: 22.73 pg
MEAN CORPUSCULAR HEMOGLOBIN CONCENTRATION [3]: 37.2 G/DL
MEAN CORPUSCULAR VOLUME [3]: 61.23 fL
MONOCYTE [3]: 0.33%
NEUTROPHIL [3]: 25.67%
NUCLEATED RED BLOOD CELLS [3]: 0 /100WBC
PLATELET COUNT [3]: 1614.33 x10E3/uL
ALANINE AMINOTRANSFERASE [3]: 39.67 u/L
ALBUMIN [3]: 3.47 G/DL
ALKALINE PHOSPHATASE [3]: 268.67 u/L
ASPARTATE AMINOTRANSFERASE [3]: 76.33 u/L
BLOOD UREA NITROGEN [3]: 16.67 mg/dL
CARBON DIOXIDE [3]: 25 mmol/L
CHLORIDE [3]: 104.33 MEQ/L
CHOLESTEROL [3]: 59.67 mg/dL
CREATINE PHOSPHOKINASE [3]: 355 u/L
CREATININE [3]: 0.23 mg/dL
GLUCOSE [3]: 160.67 mg/dL
LACTATE DEHYDROGENASE [3]: 169.33 u/L
LIPASE [3]: 7.33 u/L
PHOSPHORUS [3]: 12.67 mg/dL
POTASSIUM [3]: 6.48 MEQ/L
SODIUM [3]: 144.93 MEQ/L
TOTAL BILIRUBIN [3]: 0.13 mg/dL
TOTAL PROTEIN [3]: 6.1 G/DL
URIC ACID [3]: 2.87 mg/dL
